For data set [1], the target named is T1, FAAH (Fatty Acid Amide Hydrolase) (Mus musculus, UniProt O08914).
T1 construct: The membrane homogenates are prepared at the time of use by homogenization of the tissues; from tissue; host or cells: mouse brain (minus the cerebellum), membrane homogenate
T1 sequence (O08914 1-579): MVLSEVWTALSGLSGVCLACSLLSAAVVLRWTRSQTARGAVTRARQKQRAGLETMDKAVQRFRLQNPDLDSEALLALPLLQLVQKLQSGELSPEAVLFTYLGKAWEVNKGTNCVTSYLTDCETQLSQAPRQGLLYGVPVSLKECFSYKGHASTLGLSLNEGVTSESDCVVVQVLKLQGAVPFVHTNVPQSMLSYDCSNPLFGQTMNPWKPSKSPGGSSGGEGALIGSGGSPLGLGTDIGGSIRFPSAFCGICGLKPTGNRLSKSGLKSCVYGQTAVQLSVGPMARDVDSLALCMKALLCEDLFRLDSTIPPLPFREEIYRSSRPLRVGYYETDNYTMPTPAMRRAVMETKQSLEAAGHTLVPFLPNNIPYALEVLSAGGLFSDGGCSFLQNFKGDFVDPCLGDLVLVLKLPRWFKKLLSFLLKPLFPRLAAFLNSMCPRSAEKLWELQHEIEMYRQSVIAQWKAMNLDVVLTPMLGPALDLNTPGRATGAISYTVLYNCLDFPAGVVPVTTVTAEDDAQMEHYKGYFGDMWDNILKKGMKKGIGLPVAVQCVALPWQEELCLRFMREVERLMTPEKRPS
Briefly: Radioenzymatic test of FAAH inhibition: hydrolysis of anandamide [ethanolamine 1-3H] by mouse brain membrane homogenates. In kind it is biochemical. The note with it: mouse brain membrane homogenate; preincubation 20 min at 25° C.; anandamide 10 μM; read-out: CI50 (concentration which inhibits the control enzymatic activity of FAAH by 50%). The procedure:
The compounds of the invention form the subject of pharmacological trials which make it possible to determine their inhibitory effect on the enzyme FAAH (Fatty Acid Amide Hydrolase).
Thus, mouse brains (minus the cerebellum) are removed and stored at −80° C. The membrane homogenates are prepared at the time of use by homogenization of the tissues using a Precellys® device in the reaction buffer (Tris-HCl 10 mM pH=8, NaCl 150 mM and ethylenediaminetetraacetic acid (EDTA) 1 mM). The enzymatic reaction is carried out in 96-well MultiScreen filtration plates in a final volume of 70 μl. Reaction buffer supplemented with bovine serum albumin free from fatty acids (BSA, 1 mg/ml) is used for the enzymatic reaction, the dilution of the compounds and the dilution of the anandamide [ethanolamine 1-^3H]. Reaction buffer comprising the BSA (43 μl/well), the diluted test compounds at different concentrations (7 μl/well comprising 1% of DMSO) and the membrane preparation (10 μl/well, i.e. 200 μg of tissue per trial) are successively added to the wells. After preincubating the compounds with the enzyme at 25° C. for 20 minutes, the reaction is initiated by the addition of anandamide [ethanolamine 1-^3H] (specific activity of 15-20 Ci/mmol) diluted with cold anandamide (10 μl/well, final concentration of 10 μM, 0.01 μCi, per trial). After incubating at 25° C. for 20 minutes, the enzymatic reaction is halted by addition of a […] active charcoal solution prepared in a 1.5M NaCl and 0.5M HCl buffer (50 μl/well). The mixture is stirred for 10 minutes and then the aqueous phase comprising the [1-^3H]ethanolamine is recovered by filtration under vacuum and counted by liquid scintillation.

In general, melting point refers to the temperature, or range, at which the solid turns liquid. Take `O=C(OCc1nccs1)N1CCC(COc2ccc3c(Cl)cccc3c2)C1` (racemic) [No. 196, Thiazol-2-ylmethyl (+/−)-3-(5-chloronaphth-2-yloxymethyl)pyrrolidine-1-carboxylate]: the melting point fell in the range of 100 to 102 °C. In data set [1], the IC50 was 252 nM.
On the same counts, the results for `NC(=O)c1cc(COC(=O)N2CC[C@@H](COc3ccc4ccccc4c3)C2)on1` (single isomer, unassigned) [No. 200] are 138 to 140 °C and 122 nM.
In the case of `CCCCOc1cccc(OCCC2CCN(C(=O)OCc3cscn3)CC2)c1` [No. 90, Thiazol-4-ylmethyl 4-[2-(3-butoxyphenoxy)ethyl]-piperidine-1-carboxylate], the IC50 in data set [1] stood at 92 nM.
On to `NC(=O)c1cc(COC(=O)N2CCC(CCOc3ccc(OC(F)(F)F)cc3)CC2)on1` [No. 199, 3-Carbamoylisoxazol-5-ylmethyl 4-[2-(4-{trifluoromethoxy}phenoxy)ethyl]piperidine-1-carboxylate], for which the melting point lay in the range of 112 to 115 °C. The IC50 in data set [1] worked out at 350 nM.
For the molecule `O=C(OCc1nccs1)N1CCC(CCOc2ccc(Cc3ccccc3)cc2)CC1` [No. 49, Thiazol-2-ylmethyl 4-[2-(4-benzylphenoxy)ethyl]-piperidine-1-carboxylate], in data set [1], the IC50 worked out at 19 nM.
`CCCCOc1cccc(OCCC2CCN(C(=O)OCc3nccs3)CC2)c1` [No. 60, Thiazol-2-ylmethyl 4-[2-(3-butoxyphenoxy)ethyl]-piperidine-1-carboxylate]: the IC50 in data set [1] came to 95 nM.
Regarding `O=C(OCc1nccs1)N1CCC(CCOc2ccccc2-c2nc3ccccc3o2)CC1` [No. 39, Thiazol-2-ylmethyl 4-[2-(2-{benzoxazol-2-yl}-phenoxy)ethyl]piperidine-1-carboxylate], the IC50 in data set [1] is 13 nM.
The same measure, in the same setting: the figure for `O=C(OCc1nccs1)N1CCC(CCOc2ccc(C3CCCC3)cc2)CC1` [No. 38, Thiazol-2-ylmethyl 4-[2-(4-cyclopentylphenoxy)-ethyl]piperidine-1-carboxylate] is 14 nM.
`O=C(OCc1cscn1)N1CCC(COc2cnc3ccccc3c2)C1` (racemic) [No. 26, Thiazol-4-ylmethyl (+/−)-3-(quinolin-3-yloxymethyl)-pyrrolidine-1-carboxylate]: the melting point was 83 to 85 °C. Moreover, the IC50 in data set [1] stood at 86 nM.
On the same counts, the results for `NC(=O)c1cc(COC(=O)N2CC[C@H](COc3ccc4ccccc4c3)C2)on1` (single isomer, unassigned) [No. 202] are 139 to 141 °C and 8 nM.
With `O=C(OCc1cscn1)N1CCC(CCOc2ccc3ccccc3c2)CC1` [No. 15, Thiazol-4-ylmethyl 4-[2-(naphth-2-yloxy)ethyl]-piperidine-1-carboxylate], the melting point was 88 to 90 °C.

Source of the values: patent US9000010B2, “Alkyl-heterocycle carbamate derivatives, their preparation and their therapeutic application” (Sanofi, priority 2010, dated 2015).
